From ChEMBL document CHEMBL1201862, “PubChem BioAssay data set” (2004)
One block for each compound: values may come before it. The source made the active and inactive calls.

Columns and labels:
[1] = target: T1, G-protein coupled receptor 55 (Homo sapiens, UniProt Q9Y2T6); assay: selective activators of receptor GPR55 – imaging, U2OS cells, beta-arrestin-GFP redistribution, primary screen (AID 1961); assay type: functional
Phosphomannomutase 2 = Phosphomannomutase 2 (Homo sapiens, UniProt O15305); assay: Counter screen SAR assay for PMM2 inhibitors via a fluorescence intensity assay. [Related pubchem assays (depositor defined):AID1545, AID1574]
[2] = target: T2, Mannose-6-phosphate isomerase (Homo sapiens, UniProt P34949); assay: phosphomannose isomerase inhibition – biochemical, fluorescence intensity, confirmation (AID 1535)
T2 sequence (P34949 whole entry): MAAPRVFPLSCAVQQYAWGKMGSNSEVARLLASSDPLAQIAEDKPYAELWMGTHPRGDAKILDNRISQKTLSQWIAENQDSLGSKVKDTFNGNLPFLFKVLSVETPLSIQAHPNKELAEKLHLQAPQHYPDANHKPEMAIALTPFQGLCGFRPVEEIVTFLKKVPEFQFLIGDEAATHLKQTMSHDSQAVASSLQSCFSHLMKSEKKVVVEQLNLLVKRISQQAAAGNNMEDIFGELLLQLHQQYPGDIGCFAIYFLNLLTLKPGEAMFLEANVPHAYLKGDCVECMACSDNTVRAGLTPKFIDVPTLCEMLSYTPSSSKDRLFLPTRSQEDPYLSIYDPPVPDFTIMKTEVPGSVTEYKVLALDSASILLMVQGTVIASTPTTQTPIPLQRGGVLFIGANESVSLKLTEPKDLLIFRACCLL

Hexokinase = Hexokinase (Trypanosoma brucei, UniProt Q38C41); assay: Confirmation assay for inhibitors of Trypanosoma brucei hexokinase 1-Analogue-first series. [Related pubchem assays (depositor defined):AID1430, AID1632, AID2516, AID2560, AID2579, AID2600, AID449725, AID492951]; assay type: functional
[3] = target: T3, Type-1 angiotensin II receptor (Homo sapiens, UniProt P30556); assay: agonist activity at AGTR1 – cell-based, uHTS hits, selectivity assay for APJ receptor agonist project, dose response (AID 488865); assay type: functional;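 also: beta-arrestin recruitment to AT1 measured by enzyme fragment complementation luminescence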
T3 sequence (P30556 whole entry): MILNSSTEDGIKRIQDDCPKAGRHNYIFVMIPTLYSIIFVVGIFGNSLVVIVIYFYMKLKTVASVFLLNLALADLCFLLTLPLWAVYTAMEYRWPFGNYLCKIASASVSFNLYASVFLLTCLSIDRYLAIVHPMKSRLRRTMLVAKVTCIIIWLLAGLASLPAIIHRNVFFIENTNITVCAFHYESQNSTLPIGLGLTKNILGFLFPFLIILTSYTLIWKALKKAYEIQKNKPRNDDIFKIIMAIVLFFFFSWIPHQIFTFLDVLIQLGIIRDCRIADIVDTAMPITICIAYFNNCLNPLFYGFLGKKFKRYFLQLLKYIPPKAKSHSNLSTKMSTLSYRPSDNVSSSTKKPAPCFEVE

[4] = target: Voltage-dependent T-type calcium channel subunit alpha-1H (Homo sapiens, UniProt O95180); assay: human CACNA1H calcium influx blockade – cell-based, synthetic library set 1, calcium flux (AID 493022); assay type: functional
Chain of Voltage-dependent T-type calcium channel subunit alpha-1H (O95180 whole entry): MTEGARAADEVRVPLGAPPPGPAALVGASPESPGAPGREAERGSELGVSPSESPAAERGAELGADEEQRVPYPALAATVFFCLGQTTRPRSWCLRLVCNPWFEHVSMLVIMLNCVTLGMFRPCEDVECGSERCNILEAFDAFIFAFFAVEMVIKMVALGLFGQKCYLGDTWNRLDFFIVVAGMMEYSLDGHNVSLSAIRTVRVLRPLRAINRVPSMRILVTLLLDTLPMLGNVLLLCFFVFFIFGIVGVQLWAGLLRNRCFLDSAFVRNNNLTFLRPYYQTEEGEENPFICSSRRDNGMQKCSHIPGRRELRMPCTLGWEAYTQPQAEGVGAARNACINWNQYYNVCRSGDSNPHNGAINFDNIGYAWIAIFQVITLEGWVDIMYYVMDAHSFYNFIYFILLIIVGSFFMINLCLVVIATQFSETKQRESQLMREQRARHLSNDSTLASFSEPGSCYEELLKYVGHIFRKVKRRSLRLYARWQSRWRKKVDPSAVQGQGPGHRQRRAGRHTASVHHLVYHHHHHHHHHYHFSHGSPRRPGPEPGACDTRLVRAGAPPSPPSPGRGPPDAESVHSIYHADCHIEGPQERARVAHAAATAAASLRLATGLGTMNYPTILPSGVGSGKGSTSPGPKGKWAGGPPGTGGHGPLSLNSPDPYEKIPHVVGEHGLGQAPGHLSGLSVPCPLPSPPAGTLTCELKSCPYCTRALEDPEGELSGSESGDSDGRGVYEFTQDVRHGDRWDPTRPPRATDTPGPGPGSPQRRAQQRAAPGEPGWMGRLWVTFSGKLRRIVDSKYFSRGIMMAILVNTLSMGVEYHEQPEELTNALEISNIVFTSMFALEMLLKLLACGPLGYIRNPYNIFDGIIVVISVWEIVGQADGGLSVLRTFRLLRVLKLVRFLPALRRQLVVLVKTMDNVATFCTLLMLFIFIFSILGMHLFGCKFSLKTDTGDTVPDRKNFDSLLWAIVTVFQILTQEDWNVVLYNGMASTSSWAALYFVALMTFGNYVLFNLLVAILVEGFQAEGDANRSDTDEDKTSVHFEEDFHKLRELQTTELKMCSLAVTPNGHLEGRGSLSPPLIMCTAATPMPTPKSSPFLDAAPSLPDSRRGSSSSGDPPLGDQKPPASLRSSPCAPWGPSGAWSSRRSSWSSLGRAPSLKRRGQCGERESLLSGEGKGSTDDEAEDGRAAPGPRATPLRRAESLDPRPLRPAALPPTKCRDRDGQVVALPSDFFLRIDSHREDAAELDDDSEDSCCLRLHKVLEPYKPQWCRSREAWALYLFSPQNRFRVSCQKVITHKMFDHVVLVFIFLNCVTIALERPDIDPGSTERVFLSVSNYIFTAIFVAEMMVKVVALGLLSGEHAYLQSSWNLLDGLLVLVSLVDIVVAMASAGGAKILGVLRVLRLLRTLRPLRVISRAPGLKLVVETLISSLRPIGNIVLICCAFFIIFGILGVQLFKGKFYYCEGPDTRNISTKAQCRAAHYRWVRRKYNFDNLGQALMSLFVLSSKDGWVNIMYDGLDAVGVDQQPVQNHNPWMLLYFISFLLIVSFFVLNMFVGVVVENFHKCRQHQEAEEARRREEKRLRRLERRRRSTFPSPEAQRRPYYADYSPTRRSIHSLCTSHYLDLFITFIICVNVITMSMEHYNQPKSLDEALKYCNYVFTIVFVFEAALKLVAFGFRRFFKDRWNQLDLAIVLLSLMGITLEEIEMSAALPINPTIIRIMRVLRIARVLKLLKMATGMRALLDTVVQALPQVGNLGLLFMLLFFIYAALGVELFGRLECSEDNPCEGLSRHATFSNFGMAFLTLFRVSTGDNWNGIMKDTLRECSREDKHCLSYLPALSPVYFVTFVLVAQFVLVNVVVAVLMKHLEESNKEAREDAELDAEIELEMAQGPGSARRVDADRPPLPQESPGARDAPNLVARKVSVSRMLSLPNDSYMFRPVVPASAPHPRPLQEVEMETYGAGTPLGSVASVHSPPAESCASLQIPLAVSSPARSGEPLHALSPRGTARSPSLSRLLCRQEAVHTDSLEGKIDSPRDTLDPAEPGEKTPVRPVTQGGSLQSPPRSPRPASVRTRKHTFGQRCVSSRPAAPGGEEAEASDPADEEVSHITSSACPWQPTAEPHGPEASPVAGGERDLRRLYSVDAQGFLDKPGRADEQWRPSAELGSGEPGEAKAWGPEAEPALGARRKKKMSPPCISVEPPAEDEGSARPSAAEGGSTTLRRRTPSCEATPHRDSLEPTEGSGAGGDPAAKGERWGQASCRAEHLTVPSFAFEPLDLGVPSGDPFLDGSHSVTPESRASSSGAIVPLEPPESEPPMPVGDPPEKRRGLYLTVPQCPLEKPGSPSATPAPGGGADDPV

Cannabinoid receptor 1 [5] = target: T4, Cannabinoid receptor 1 (Homo sapiens, UniProt P21554); assay: SAR analysis of agonists of the Cannabinoid Receptor 1 using an Image-Based Assay - Set 3. [Related pubchem assays (depositor defined):AID1961, AID1965]; assay type: functional
T4 sequence (P21554 whole entry): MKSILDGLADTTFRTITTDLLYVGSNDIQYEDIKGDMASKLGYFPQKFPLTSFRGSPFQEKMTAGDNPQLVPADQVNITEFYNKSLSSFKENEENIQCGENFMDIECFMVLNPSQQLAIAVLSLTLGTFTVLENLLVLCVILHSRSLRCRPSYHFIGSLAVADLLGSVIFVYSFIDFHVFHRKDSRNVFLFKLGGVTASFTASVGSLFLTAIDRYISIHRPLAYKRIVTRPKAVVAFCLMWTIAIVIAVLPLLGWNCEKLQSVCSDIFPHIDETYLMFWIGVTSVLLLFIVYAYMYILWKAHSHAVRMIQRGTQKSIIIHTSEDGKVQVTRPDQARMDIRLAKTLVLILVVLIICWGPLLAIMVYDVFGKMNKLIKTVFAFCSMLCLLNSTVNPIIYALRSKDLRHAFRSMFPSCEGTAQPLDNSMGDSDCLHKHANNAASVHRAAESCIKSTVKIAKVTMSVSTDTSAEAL

[6] = target: T5, G-protein coupled receptor 35 (Homo sapiens, UniProt Q9HC97); assay: SAR analysis of Agonists of the GPR35 Receptor using an Image-Based Assay - Set 3. [Related pubchem assays (depositor defined):AID1961, AID1965]; assay type: functional
T5 sequence (Q9HC97 whole entry): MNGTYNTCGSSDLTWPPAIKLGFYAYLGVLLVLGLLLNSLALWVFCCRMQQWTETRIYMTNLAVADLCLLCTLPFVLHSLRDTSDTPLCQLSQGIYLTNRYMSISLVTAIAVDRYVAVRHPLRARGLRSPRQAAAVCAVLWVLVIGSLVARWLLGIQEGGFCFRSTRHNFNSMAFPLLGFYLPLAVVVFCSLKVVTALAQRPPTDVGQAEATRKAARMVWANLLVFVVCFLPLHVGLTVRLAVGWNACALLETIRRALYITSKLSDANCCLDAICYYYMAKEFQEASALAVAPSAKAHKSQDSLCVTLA

[7] = target: T5, G-protein coupled receptor 35; assay: SAR analysis of Antagonists of the GPR35 Receptor using an Image-Based Assay - Set 4. [Related pubchem assays (depositor defined):[…]]; assay type: functional
[8] = target: T1, G-protein coupled receptor 55; assay: SAR analysis of selective Agonists of GPR55 using an Image-Based Assay - Set 2. [Related pubchem assays (depositor defined):AID1961, AID1965]; assay type: functional
Cannabinoid receptor 2 [9] = target: T6, Cannabinoid receptor 2 (Homo sapiens, UniProt P34972); assay: SAR analysis of agonists of the Cannabinoid Receptor 2 using an Image-Based Assay - Set 2. [Related pubchem assays (depositor defined):AID1961, AID1965]; assay type: functional
T6 sequence (P34972 whole entry): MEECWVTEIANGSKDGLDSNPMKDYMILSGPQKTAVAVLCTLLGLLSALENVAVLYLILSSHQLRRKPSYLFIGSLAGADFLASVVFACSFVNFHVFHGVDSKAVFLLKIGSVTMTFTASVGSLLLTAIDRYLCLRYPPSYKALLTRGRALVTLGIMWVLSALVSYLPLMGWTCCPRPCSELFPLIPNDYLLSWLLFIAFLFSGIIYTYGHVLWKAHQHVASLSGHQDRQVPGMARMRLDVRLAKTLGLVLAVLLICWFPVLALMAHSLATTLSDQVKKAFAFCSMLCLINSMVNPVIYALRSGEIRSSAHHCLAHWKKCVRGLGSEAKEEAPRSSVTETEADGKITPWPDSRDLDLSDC

Cannabinoid receptor 1 [10] = target: T4, Cannabinoid receptor 1; assay: SAR analysis of antagonists of the Cannabinoid Receptor 1 using an Image-Based Assay - Set 3. [Related pubchem assays (depositor defined):AID1961, AID1965]; assay type: functional
Cannabinoid receptor 2 [11] = target: T6, Cannabinoid receptor 2; assay: SAR analysis of antagonists of the Cannabinoid Receptor 2 using an Image-Based Assay - Set 2. [Related pubchem assays (depositor defined):AID1961, AID1965]; assay type: functional
[12] = target: Delta-type opioid receptor (Homo sapiens, UniProt P41143); assay: SAR Analysis of Antagonists of the DOR Receptor using an Image-Based Assay - Set 3. [Related pubchem assays (depositor defined):AID1777, AID1785]; assay type: functional;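 also: U2OS cells expressing DOR1 and beta-arrestin GFP stimulated with 100 nM SNC80; imaging of GFP-tagged beta-arrestin moving into spots after receptor activation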
Chain of Delta-type opioid receptor (P41143 whole entry): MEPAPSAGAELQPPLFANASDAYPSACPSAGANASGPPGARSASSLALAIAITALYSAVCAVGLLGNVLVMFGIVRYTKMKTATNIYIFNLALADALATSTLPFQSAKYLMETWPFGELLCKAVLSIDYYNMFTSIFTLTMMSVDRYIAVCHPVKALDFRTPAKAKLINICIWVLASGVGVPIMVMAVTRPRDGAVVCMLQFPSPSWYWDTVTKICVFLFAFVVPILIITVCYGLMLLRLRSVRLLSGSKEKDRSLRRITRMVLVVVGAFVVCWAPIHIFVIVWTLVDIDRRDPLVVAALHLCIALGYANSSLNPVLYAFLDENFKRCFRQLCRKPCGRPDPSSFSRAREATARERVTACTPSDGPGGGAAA

[13] = target: T7, Kappa-type opioid receptor (Homo sapiens, UniProt P41145); assay: SAR analysis of Antagonists of the Kappa Opioid Receptor (KOR) using an Image-Based Assay - Set 4. [Related pubchem assays (depositor defined):AID1777, AID1785]; assay type: functional
T7 sequence (P41145 whole entry): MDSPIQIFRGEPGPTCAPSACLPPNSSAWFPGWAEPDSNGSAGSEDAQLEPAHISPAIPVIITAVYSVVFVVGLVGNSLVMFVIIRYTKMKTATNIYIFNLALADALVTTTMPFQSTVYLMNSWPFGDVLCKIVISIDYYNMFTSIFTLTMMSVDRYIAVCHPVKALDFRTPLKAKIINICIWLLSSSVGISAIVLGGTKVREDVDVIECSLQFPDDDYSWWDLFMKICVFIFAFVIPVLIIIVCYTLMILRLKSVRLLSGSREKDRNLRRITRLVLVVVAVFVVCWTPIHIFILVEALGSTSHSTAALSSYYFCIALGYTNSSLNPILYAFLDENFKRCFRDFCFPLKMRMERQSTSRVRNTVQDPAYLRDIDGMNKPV

Mu-type opioid receptor = Mu-type opioid receptor (Homo sapiens, UniProt P35372); assay: SAR Analysis of Antagonists of the MOR Receptor using an Image-Based Assay - Set 3. [Related pubchem assays (depositor defined):AID1777, AID1785, AID1786, AID1966, AID2133, AID2136, AID2284, AID2285, AID2420]; assay type: functional
Chain of Mu-type opioid receptor (P35372 whole entry): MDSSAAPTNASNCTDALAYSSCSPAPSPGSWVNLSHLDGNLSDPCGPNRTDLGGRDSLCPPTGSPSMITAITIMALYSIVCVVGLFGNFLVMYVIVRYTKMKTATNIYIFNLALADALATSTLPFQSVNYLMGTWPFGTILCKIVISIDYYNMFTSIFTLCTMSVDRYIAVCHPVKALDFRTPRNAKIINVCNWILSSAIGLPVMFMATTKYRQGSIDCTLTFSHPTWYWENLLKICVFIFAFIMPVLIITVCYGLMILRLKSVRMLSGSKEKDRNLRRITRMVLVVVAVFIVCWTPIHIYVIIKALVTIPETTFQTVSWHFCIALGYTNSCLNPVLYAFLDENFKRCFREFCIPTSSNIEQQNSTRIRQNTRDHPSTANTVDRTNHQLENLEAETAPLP

[14] = target: T7, Kappa-type opioid receptor; assay: SAR analysis of small molecule antagonists of the kappa opioid receptor via a luminescent beta-arrestin assay - Set 4. [Related pubchem assays (depositor defined):AID1777, AID1778, AID1785, AID1786, AID1966, AID2133, AID2136, AID2285]; assay type: functional

T1 sequence (Q9Y2T6 whole entry): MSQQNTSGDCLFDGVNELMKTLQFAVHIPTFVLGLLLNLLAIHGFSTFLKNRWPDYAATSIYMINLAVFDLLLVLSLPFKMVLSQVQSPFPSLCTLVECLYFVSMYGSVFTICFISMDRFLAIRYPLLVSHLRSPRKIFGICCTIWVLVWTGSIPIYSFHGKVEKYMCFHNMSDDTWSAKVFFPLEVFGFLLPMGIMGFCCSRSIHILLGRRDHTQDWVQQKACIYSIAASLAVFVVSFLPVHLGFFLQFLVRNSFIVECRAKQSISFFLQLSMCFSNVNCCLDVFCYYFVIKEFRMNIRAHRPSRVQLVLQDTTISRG

Structure (SMILES): COc1ccc(C/N=c2\ssnc2Cl)cc1
IC50 (Phosphomannomutase 2): > 100 µM (inactive)
IC50 [2]: 15.5 µM (active)

Structure (SMILES): O=c1c2cc(N3CCOCC3)ccc2sn1-c1ccccc1
IC50 (Hexokinase): 4.46 µM (active)

Structure (SMILES): CCOc1cc2[nH]c(=S)n(CCN3CCC(C)CC3)c(=O)c2cc1OCC
EC50 [3]: > 100 µM (inactive)

Structure (SMILES): COc1ccc(S(=O)(=O)N2CCOCC2)cc1NC(=O)c1cc2c(s1)CCCCC2
EC50 (Cannabinoid receptor 1 [5]): > 32 µM (inactive)
EC50 [6]: > 32 µM (inactive)
IC50 [7]: > 32 µM (inactive)
EC50 [8]: > 32 µM (inactive)
EC50 (Cannabinoid receptor 2 [9]): > 32 µM (inactive)
IC50 (Cannabinoid receptor 1 [10]): 20.6 µM (inactive)
IC50 (Cannabinoid receptor 2 [11]): > 32 µM (inactive)

Structure (SMILES): Cc1ccc(S(=O)(=O)NCc2ccc(C(=O)NC3CCN(Cc4ccccc4)CC3)cc2)cc1
IC50 [12]: > 32 µM (inactive)
IC50 [13]: > 32 µM (inactive)
IC50 (Mu-type opioid receptor): > 32 µM (inactive)
IC50 [14]: > 20 µM (inactive)

Second part, the compound after the results:

EC50 [1]: 11.2 µM (inactive)
Structure (SMILES): CCCc1ccc2oc(C(=O)N(Cc3ccncc3)CC3CCCO3)c(C)c2c1 (configuration not stated)

EC50 [4]: 1.1 µM (active)
Structure (SMILES): Cc1ccc(-c2nnc(NC(=O)COc3ccc(F)cc3Cl)o2)cc1C
